This is an account of results in article PMC9072222 (RSC Advances, 2019).

For data set [1], the system named is db/db mice. The data set can be described thus: Modified multiple IPGTTs in fasted db/db mice. The data set is classed as in vivo, mouse. Conditions: 0.1 mg kg^−1 single dose, IPGTT at 30 hours.
For data set [2], the system named is db/db mice. The data set can be described thus: Hypoglycemic duration test in non-fasted db/db mice. The data set is classed as in vivo, mouse. The following applies: 0.1 mg kg^−1 s.c., n = 8.
Data set [3] has as its system db/db mice. The data set can be described thus: Chronic 8 week in vivo study in db/db mice. Conditions: Liraglutide 0.1 mg kg^−1 s.c., 8 week treatment, blood. Set-up: species or system mouse.
For data set [4] the following is noted: species not given; ref not given; cited from earlier work.

Structures are written as SMILES.

Take `CCCCCCCCCCCCCCCC(=O)N[C@@H](CCC(=O)NCCCC[C@H](NC(=O)[C@H](C)NC(=O)[C@H](C)NC(=O)[C@H](CCC(N)=O)NC(=O)CNC(=O)[C@H](CCC(=O)O)NC(=O)[C@H](CC(C)C)NC(=O)[C@H](Cc1ccc(O)cc1)NC(=O)[C@H](CO)NC(=O)[C@H](CO)NC(=O)[C@@H](NC(=O)[C@H](CC(=O)O)NC(=O)[C@H](CO)NC(=O)[C@@H](NC(=O)[C@H](Cc1ccccc1)NC(=O)[C@@H](NC(=O)CNC(=O)[C@H](CCC(=O)O)NC(=O)[C@H](C)NC(=O)[C@@H](N)Cc1cnc[nH]1)[C@@H](C)O)[C@@H](C)O)C(C)C)C(=O)N[C@@H](CCC(=O)O)C(=O)N[C@@H](Cc1ccccc1)C(=O)N[C@H](C(=O)N[C@@H](C)C(=O)N[C@@H](Cc1c[nH]c2ccccc12)C(=O)N[C@@H](CC(C)C)C(=O)N[C@H](C(=O)N[C@@H](CCCNC(=N)N)C(=O)NCC(=O)N[C@@H](CCCNC(=N)N)C(=O)NCC(=O)O)C(C)C)[C@@H](C)CC)C(=O)O` [Liraglutide]: the “glucose-lowering effect at 30 hours” value in the data set on db/db mice [1] is “almost ineffective”. Moreover, the “glucose-lowering percentage by AUC0–96 h vs saline” value with db/db mice [2] was 18.9%. In the data set on db/db mice [3], this compound returned an ALT of 45.1 ± 5.1 IU L^−1, a Cholesterol of 4.1 ± 0.6 mmol/L, an HDL-cholesterol of 2.6 ± 0.1 mmol/L and an LDL-cholesterol of 0.8 ± 0.1 mmol/L. This compound also returned a Triglyceride in the data set on db/db mice [3] of 1.1 ± 0.2 mmol/L. Moreover, the in vivo half-life in data set [4] was roughly 8 h.
